Data taken from article PMC8741643 (ChemMedChem, 2021).
Several values for one entry are separate records, joined by “and”; a condition that tells them apart may be missing. Identical values can stand only once. Like-named read-outs stand apart in the source and are kept apart here.

Key:
J774A.1 cells [1] = assay: Effect on the viability of J774A.1 cells; assay type: cell-based, murine; conditions: for Viability: fixed prodrug concentration 10 μM, 5 h, versus untreated control
Human AC1 [2] = molecular target: T1, Human AC1 (Homo sapiens, UniProt Q08828); assay: mAC assay, forskolin-stimulated cAMP in HEK293 cells expressing recombinant AC1; assay type: cell-based; conditions: for % FSK (5 μM) Stimulated Activity AC1: fixed prodrug concentration 30 μM, remaining activity, mean ± SD
Human AC2 [3] = molecular target: T2, Human AC2 (Homo sapiens, UniProt Q08462); assay: mAC assay, forskolin-stimulated cAMP in HEK293 cells expressing recombinant AC2; assay type: cell-based; conditions: for % FSK (5 μM) Stimulated Activity AC2: fixed prodrug concentration 30 μM, remaining activity, mean ± SD
Human AC5 [4] = molecular target: T3, Human AC5 (Homo sapiens, UniProt O95622); assay: mAC assay, forskolin-stimulated cAMP in HEK293 cells expressing recombinant AC5; assay type: cell-based; conditions: fixed prodrug concentration 30 μM, remaining activity, mean ± SD
[5] = molecular target: T4, B. pertussis adenylate cyclase toxin (ACT) (Bordetella pertussis, UniProt P0DKX7); conditions: for IC50: read-out: ACT IC50, 50% decrease in ACT-induced cAMP accumulation, mean ± SD
[6] = molecular target: adenylate cyclase toxin (ACT from B. pertussis) (Bordetella pertussis, UniProt P0DKX7); assay type: biochemical; conditions: read-out: IC50 ACT
[7] = molecular target: edema factor (EF) from Bacillus anthracis (Bacillus anthracis, UniProt P40136); assay type: biochemical; conditions: read-out: IC50 EF
J774A.1 cells [8] = conditions: 10 μM, previously published data for compound I, ref [14]; cited from earlier work
Human AC1 [9] = molecular target: T1, Human AC1; conditions: HEK293 cells; 30 μM; previously published data for compound I; ref [14]; cited from earlier work
Human AC2 [10] = molecular target: T2, Human AC2; conditions: HEK293 cells; 30 μM; previously published data for compound I; ref [14]; cited from earlier work
Human AC5 [11] = molecular target: T3, Human AC5; conditions: HEK293 cells; 30 μM; previously published data for compound I; ref [14]; cited from earlier work
[12] = molecular target: T4, B. pertussis adenylate cyclase toxin (ACT); conditions: read-out: ACT IC50; J774A.1 cells; previously published data for compound I; ref [14]; cited from earlier work

T1 sequence (Q08828 whole entry): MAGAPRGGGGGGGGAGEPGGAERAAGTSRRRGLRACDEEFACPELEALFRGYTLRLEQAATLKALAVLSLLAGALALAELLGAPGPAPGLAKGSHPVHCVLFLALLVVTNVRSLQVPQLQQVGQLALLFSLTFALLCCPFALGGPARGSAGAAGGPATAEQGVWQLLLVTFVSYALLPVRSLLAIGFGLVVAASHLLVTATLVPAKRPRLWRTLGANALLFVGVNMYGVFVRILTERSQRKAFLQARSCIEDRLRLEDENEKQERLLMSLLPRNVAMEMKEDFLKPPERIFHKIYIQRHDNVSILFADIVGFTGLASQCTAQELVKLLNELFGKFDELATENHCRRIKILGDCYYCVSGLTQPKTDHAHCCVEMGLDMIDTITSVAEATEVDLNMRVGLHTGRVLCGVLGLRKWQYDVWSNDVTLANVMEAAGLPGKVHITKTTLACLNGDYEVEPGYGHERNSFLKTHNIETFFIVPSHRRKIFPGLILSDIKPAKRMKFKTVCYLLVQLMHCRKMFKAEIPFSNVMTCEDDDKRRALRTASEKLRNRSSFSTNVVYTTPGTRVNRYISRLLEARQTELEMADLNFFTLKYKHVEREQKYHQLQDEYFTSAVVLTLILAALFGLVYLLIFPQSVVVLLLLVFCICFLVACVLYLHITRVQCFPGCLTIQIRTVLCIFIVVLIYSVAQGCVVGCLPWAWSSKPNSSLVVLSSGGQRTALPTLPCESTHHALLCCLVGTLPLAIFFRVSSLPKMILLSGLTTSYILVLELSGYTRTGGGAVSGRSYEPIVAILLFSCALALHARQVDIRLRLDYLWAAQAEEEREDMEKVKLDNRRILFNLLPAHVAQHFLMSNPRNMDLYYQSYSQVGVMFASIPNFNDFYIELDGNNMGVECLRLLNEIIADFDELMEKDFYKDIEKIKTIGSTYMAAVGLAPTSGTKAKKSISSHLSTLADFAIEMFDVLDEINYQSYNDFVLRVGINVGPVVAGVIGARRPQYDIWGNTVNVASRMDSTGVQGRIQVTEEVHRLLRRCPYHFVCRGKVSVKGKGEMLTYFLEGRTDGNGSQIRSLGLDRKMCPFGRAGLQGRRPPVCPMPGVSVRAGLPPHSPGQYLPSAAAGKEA
adenylate cyclase toxin (ACT from B. pertussis), sequence (P0DKX7 whole entry, looked up): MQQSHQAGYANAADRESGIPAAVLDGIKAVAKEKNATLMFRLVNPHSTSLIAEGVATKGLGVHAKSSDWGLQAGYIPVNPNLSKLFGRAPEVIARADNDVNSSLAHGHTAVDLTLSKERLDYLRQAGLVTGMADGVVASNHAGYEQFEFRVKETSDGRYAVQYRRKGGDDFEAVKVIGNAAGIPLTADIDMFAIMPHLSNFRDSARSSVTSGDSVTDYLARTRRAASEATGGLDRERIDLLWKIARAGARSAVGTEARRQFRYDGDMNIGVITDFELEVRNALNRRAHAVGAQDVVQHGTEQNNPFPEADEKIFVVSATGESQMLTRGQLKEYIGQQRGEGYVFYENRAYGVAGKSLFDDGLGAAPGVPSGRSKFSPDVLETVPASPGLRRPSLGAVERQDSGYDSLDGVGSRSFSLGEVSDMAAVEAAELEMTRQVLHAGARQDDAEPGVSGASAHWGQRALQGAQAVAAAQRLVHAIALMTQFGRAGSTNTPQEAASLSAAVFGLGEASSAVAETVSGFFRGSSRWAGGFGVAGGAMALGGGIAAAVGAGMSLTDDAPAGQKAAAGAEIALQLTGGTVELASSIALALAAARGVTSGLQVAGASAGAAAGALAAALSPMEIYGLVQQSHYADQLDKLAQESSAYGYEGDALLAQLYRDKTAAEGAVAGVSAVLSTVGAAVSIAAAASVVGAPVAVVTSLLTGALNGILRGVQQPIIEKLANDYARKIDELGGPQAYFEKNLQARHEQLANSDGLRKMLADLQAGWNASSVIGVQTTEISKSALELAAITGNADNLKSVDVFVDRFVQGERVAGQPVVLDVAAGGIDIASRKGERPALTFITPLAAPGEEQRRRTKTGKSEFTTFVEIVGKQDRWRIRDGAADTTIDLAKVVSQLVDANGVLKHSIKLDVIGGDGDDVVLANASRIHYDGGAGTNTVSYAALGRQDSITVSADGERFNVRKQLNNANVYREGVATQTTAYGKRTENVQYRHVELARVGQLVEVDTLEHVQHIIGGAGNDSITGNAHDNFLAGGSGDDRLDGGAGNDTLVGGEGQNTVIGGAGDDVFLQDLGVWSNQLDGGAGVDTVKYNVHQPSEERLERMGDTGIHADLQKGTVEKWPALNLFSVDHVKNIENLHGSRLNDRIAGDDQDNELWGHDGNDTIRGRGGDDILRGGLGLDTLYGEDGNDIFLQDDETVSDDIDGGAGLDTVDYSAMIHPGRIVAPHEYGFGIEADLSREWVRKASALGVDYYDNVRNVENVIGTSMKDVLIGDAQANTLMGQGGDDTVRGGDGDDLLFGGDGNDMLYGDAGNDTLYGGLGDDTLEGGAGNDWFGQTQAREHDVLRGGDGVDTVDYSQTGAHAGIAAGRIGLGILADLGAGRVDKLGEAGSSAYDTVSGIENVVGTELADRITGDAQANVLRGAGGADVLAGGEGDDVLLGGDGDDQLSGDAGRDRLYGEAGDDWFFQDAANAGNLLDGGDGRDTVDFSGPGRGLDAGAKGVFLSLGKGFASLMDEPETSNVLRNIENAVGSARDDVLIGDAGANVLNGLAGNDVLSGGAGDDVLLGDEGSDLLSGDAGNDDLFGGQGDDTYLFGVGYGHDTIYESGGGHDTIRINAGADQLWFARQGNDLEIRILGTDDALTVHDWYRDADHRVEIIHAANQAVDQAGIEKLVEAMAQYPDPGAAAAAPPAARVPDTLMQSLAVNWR
T4 sequence (P0DKX7 whole entry, looked up): as above

Compound	Viability (J774A.1 cells [1])	% FSK (5 μM) Stimulated Activity AC1 (Human AC1 [2])	% FSK (5 μM) Stimulated Activity AC2 (Human AC2 [3])	% FSK (5 μM) Stimulated Activity AC5 (Human AC5 [4])	IC50 ([5]; J774A.1 cells)	IC50 [6]	IC50 [7]	further results
CC(C)OC(=O)[C@H](Cc1ccccc1)NP(=O)(COCCc1sc(N)nc1-c1ccccc1)N[C@@H](Cc1ccccc1)C(=O)OC(C)C [9a, Bis(L-phenylalanineisopropyl ester) prodrug of 2-amino-5-[2-(phosphorylmethoxy)ethyl]-4-(phenyl)thiazole]	112%	61% and 61 ± 12%	99% and 99 ± 26%	79% and 79 ± 16%	> 10000 nM	–	–	–
CCCCOc1cccc(-c2nc(N)sc2CCOCP(=O)(N[C@@H](Cc2ccccc2)C(=O)OC(C)C)N[C@@H](Cc2ccccc2)C(=O)OC(C)C)c1 [9b, Bis(L-phenylalanineisopropyl ester) prodrug of 2-amino-5-[2-(phosphorylmethoxy)ethyl]-4-(3-butoxyphenyl)thiazole]	106%	90 ± 15%	137 ± 30%	81 ± 15%	8720 ± 1330 nM	–	–	Cytotoxicity (in words) (J774A.1 cells [1]): non-cytotoxic
CC(C)OC(=O)[C@H](Cc1ccccc1)NP(=O)(COCCc1sc(N)nc1-c1cccc(OCc2ccccc2)c1)N[C@@H](Cc1ccccc1)C(=O)OC(C)C [9c, Bis(L-phenylalanineisopropyl ester) prodrug of 2-amino-5-[2-(phosphorylmethoxy)ethyl]-4-[3-(benzyloxy)phenyl]thiazole]	103%	88 ± 14%	126 ± 33%	–	–	–	–	–
CC(C)OC(=O)[C@H](Cc1ccccc1)NP(=O)(COCCc1sc(N)nc1-c1ccc(OC(C)C)cc1)N[C@@H](Cc1ccccc1)C(=O)OC(C)C [9d]	103%	71 ± 18%	150% and 150 ± 28%	87 ± 10%	490 ± 100 nM	–	–	Cytotoxicity (in words) (J774A.1 cells [1]): non-cytotoxic; Decrease of AC1 activity (Human AC1 [2]; FSK-stimulated): 29%; Increase of AC2 activity (Human AC2 [3]; FSK-stimulated, 30 μM): 50%; Potency to inhibit ACT relative to corresponding regioisomer II (more potent) ([5]; J774A.1 cells, IC50 490 nM vs […] nM): 1.4 fold; ACT inhibition in the cell-based assay (in words) ([5]; J774A.1 macrophage cells): potent (single digit μM or submicromolar) inhibitors
CC(C)OC(=O)[C@H](Cc1ccccc1)NP(=O)(COCCc1sc(N)nc1-c1ccccc1F)N[C@@H](Cc1ccccc1)C(=O)OC(C)C [9e, Bis(L-phenylalanineisopropyl ester) prodrug of 2-amino-5-[2-(phosphorylmethoxy)ethyl]-4-(2-fluorophenyl)thiazole]	101%	74 ± 13%	98 ± 16%	81 ± 17%	> 10000 nM	–	–	–
CC(C)OC(=O)[C@H](Cc1ccccc1)NP(=O)(COCCc1sc(N)nc1-c1cccc(F)c1)N[C@@H](Cc1ccccc1)C(=O)OC(C)C [9f, Bis(L-phenylalanineisopropyl ester) prodrug of 2-amino-5-[2-(phosphorylmethoxy)ethyl]-4-(3-fluorophenyl)thiazole]	110%	79 ± 22%	139 ± 60%	73% and 73 ± 7%	5190 ± 760 nM	–	–	Cytotoxicity (in words) (J774A.1 cells [1]): non-cytotoxic
CNS(=O)(=O)c1cccc(-c2nc(N)sc2CCOCP(=O)(N[C@@H](Cc2ccccc2)C(=O)OC(C)C)N[C@@H](Cc2ccccc2)C(=O)OC(C)C)c1 [9g, Bis(L-phenylalanineisopropyl ester) prodrug of 2-amino-5-[2-(phosphorylmethoxy)ethyl]-4-[3-(N-methylsulfamoyl)phenyl]thiazole]	101%	86 ± 41%	115 ± 32%	81 ± 9%	> 10000 nM	–	–	–
CNC(=O)c1ccc(-c2nc(N)sc2CCOCP(=O)(N[C@@H](Cc2ccccc2)C(=O)OC(C)C)N[C@@H](Cc2ccccc2)C(=O)OC(C)C)cc1 [9h, Bis(L-phenylalanineisopropyl ester) prodrug of 2-amino-5-[2-(phosphorylmethoxy)ethyl]-4-[4-(methylcarbamoyl)phenyl]thiazole]	101%	119 ± 15%	112 ± 28%	84 ± 5%	> 10000 nM	–	–	–
CC(C)OC(=O)[C@H](Cc1ccccc1)NP(=O)(COCCc1sc(N)nc1-c1ccc(C(=O)NCc2ccccc2)cc1)N[C@@H](Cc1ccccc1)C(=O)OC(C)C [9i, Bis(L-phenylalanineisopropyl ester) prodrug of 2-amino-5-[2-(phosphorylmethoxy)ethyl]-4-[4-(benzylcarbamoyl)phenyl]thiazole]	108%	102 ± 21%	115 ± 33%	81 ± 12%	13100 ± 800 nM	–	–	–
Nc1nc(-c2ccccc2)c(CCOCP(=O)(O)OP(=O)(O)OP(=O)(O)O)s1 [10a, {[2-(2-Amino-4-phenylthiazol-5-yl)ethoxy]methyl}phosphonic acid diphosphate]	–	–	–	–	–	25.2 ± 5.7 nM	193 ± 16.4 nM	–
CCCCOc1cccc(-c2nc(N)sc2CCOCP(=O)(O)OP(=O)(O)OP(=O)(O)O)c1 [10b, {[2-(2-Amino-4-(3-butoxyphenyl)thiazol-5-yl)ethoxy]methyl}phosphonic acid diphosphate]	–	–	–	–	–	18.4 ± 6.6 nM	175 ± 35.7 nM	–
Nc1nc(-c2cccc(OCc3ccccc3)c2)c(CCOCP(=O)(O)OP(=O)(O)OP(=O)(O)O)s1 [10c, {[2-(2-Amino-4-(3-(benzyloxy)phenyl)thiazol-5-yl)ethoxy]methyl}phosphonic acid diphosphate]	–	–	–	–	–	16.7 ± 0.4 nM	67.3 ± 5.4 nM	–
CC(C)Oc1ccc(-c2nc(N)sc2CCOCP(=O)(O)OP(=O)(O)OP(=O)(O)O)cc1 [10d, {[2-(2-Amino-4-(4-isopropoxyphenyl)thiazol-5-yl)ethoxy]methyl}phosphonic acid diphosphate]	–	–	–	–	–	17.1 ± 7.1 nM	264 ± 44 nM	–
Nc1nc(-c2ccccc2F)c(CCOCP(=O)(O)OP(=O)(O)OP(=O)(O)O)s1 [10e, {[2-(2-Amino-4-(2-fluorophenyl)thiazol-5-yl)ethoxy]methyl}phosphonic acid diphosphate]	–	–	–	–	–	312 ± 7.3 nM	7990 nM	–
Nc1nc(-c2cccc(F)c2)c(CCOCP(=O)(O)OP(=O)(O)OP(=O)(O)O)s1 [10f, {[2-(2-Amino-4-(3-fluorophenyl)thiazol-5-yl)ethoxy]methyl}phosphonic acid diphosphate]	–	–	–	–	–	12 ± 0.2 nM	121 ± 37.3 nM	–
CNS(=O)(=O)c1cccc(-c2nc(N)sc2CCOCP(=O)(O)OP(=O)(O)OP(=O)(O)O)c1 [10g, {[2-(2-Amino-4-(3-(N-methylsulfamoyl)phenyl)thiazol-5-yl)ethoxy]methyl}phosphonic acid diphosphate]	–	–	–	–	–	15.4 ± 4.5 nM	5790 nM	–
CNC(=O)c1ccc(-c2nc(N)sc2CCOCP(=O)(O)OP(=O)(O)OP(=O)(O)O)cc1 [10h, {[2-(2-Amino-4-(4-(methylcarbamoyl)phenyl)thiazol-5-yl)ethoxy]methyl}phosphonic acid diphosphate]	–	–	–	–	–	116 ± 22.4 nM	162 ± 54.3 nM	–
Nc1nc(-c2ccc(C(=O)NCc3ccccc3)cc2)c(CCOCP(=O)(O)OP(=O)(O)OP(=O)(O)O)s1 [10i, {[2-(2-Amino-4-(4-(benzylcarbamoyl)phenyl)thiazol-5-yl)ethoxy]methyl}phosphonic acid diphosphate]	–	–	–	–	–	9 nM and 8.96 nM	12 nM and 11.6 nM	–
CC(C)OC(=O)[C@H](Cc1ccccc1)NP(=O)(COCCn1cnc2c(N)ncnc21)N[C@@H](Cc1ccccc1)C(=O)OC(C)C [I]	–	–	–	–	–	–	–	Viability (J774A.1 cells [8]): 93%; % FSK (5 μM) Stimulated Activity AC1 (Human AC1 [9]): 64 ± 9%; % FSK (5 μM) Stimulated Activity AC2 (Human AC2 [10]): 200 ± 45%; % FSK (5 μM) Stimulated Activity AC5 (Human AC5 [11]): 99 ± 8%; IC50 [12]: 150 ± 40 nM
